Measured values taken from patent US4753984A (priority 1985, dated 1988).

Experiments:
3 LL cells = experiment: In vivo antitumor activity on mice implanted with 3 LL cells (tumor growth and survival); set-up: species or system C 57 BL/6 male mice; conditions: for inhibition of tumor growth relative to the control lot: Daunorubicin 7x10 micrograms, polymer 8x200 microgram equivalents of Daunorubicin (i.v. days 2, 6, 10, i.p. days 14-30), FIG. 4
Procedure: The in vivo antitumor activity of the macromolecular drugs is evaluated on C 57 BL/6 male mice aged a total of about 10 weeks. 10^5 3 LL cells are implanted in each mouse by intramuscular injection of 100 microliters of a cellular suspension of 10^6 cells/ml in the right posterior paw.
One lot of 10 mice, serving as a control, is injected with 7×100 microliters of physiologic serum.
One lot of 10 mice is treated with 7×10 micrograms of free Daunorubicin (dosage limited due to the toxicity of the free drug).
After intramuscular injection of the tumoral cells, the macromolecular prodrug is injected intravenously at days 2, 6 and 10, then intraperitoneally at days 14, 18, 22, 26 and 30.
Two parameters are recorded to evaluate the in vivo antitumoral activity: the inhibition of tumor growth and animal survival.

chymotrypsin = chymotrypsin (Bos taurus, UniProt P00766); experiment: Proteolyse in vitro: chymotrypsic hydrolyse, liberated daunorubicin derivative analysed by thin layer chromatography; type: biochemical; conditions: Tris-HCl buffer 0.05 M, CaCl2 10 mM, pH 8.0; TLC analysis
Procedure: The chymotrypsic hydrolyse is effected in a Tris-HCl buffer 0.05 M, CaCl2 10 mM at pH=8.0.
On analysis, the derivatives of the daunorubicin are liberated after enzymatic hydrolysis, by thin layer chromatography.

[1] = Localization of radiolabelled Daunorubicin drugs in organs of 3 LL tumor-bearing mice; conditions: i.v. 100 micrograms Daunorubicin equivalent, 48 or 72 hours after injection
Procedure: The radiolabelled Daunorubicin drugs (14-^14 C) are injected intravenously 14 days after implantation of 10^5 3 LL cells. Either 100 micrograms of free Daunorubicin (5×10^5 cpm), or 100 micrograms of Daunorubicin in macromolecular form (5×10^5 cpm) is injected. Localization is measured after the intravenous injection of various products.
The mice are sacrificed by cervical elongation 48 hours or 72 hours after injection. The organs are removed, dissolved by a tissue solubilizing agent (NCS Amersham) at a rate of 200 mg to 300 mg of organ/ml of solubilizing agent, then counted in a liquid scintillant. […] The results are recapitulated in FIG. 3.

trypsin = biological target: T1, trypsin (Bos taurus, UniProt P00760); experiment: Proteolyse in vitro: trypsic hydrolysis, liberated daunorubicin derivative analysed by thin layer chromatography; type: biochemical; conditions: 0.1M sodium bicarbonate, CaCl2 10 mM, pH 8.7; TLC analysis
T1 construct: gene PRSS1
T1 sequence (P00760 24-246): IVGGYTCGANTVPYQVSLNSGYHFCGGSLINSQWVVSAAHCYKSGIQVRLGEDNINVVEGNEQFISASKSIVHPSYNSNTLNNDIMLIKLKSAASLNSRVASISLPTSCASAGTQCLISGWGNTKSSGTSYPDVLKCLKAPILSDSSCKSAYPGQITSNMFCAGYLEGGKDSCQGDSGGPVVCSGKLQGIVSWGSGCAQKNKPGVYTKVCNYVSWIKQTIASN
Procedure: On analysis, the derivatives of the daunorubicin are liberated after enzymatic hydrolysis, by thin layer chromatography. For example:
Trypsic hydrolysis is carried out in a 0.1M solution of sodium bicarbonate, CaCl2, 10 mM at pH, 8.7.

[2] = comparison value, source not given; cited from earlier work

Row | Compound | inhibition of tumor growth relative to the control lot (3 LL cells) | derivative of daunorubicin liberated after chymotrypsic hydrolysis (chymotrypsin) | spleen mass / atrophy [1] | further results
1 | polycarboxylated linear polymer of 2-N-acryloylamino-2-hydroxymethyl-1,3-propanediol substituted by the -Gly-Gly-L-Tyr-L-Leu-Daunorubicin sequence [Example 2] | significant inhibition of tumor growth | liberates leucyl-daunorubicin | mass comparable to that of the healthy animals | T/C (survival of the animals treated relative to the control animals) (3 LL cells; 8x200 microgram equivalents of Daunorubicin, FIG. 5): 145
2 | polycarboxylated linear polymer of 2-N-acryloylamino-2-hydroxymethyl-1,3-propanediol substituted by the Gly-L-Phe-L-Ala-L-Leu-Daunorubicin sequence [Example 3] |  | frees alaninyl-leucyl-daunorubicin |  | 
3 | polycarboxylated linear polymer of 2-N-acryloylamino-2-hydroxymethyl-1,3-propanediol substituted by the -Gly-Gly-L-Tyr-Daunorubicin sequence [Example 1] |  | frees the daunorubicin |  | 
4 | polycarboxylated linear polymer of 2-N-acryloylamino-2-hydroxymethyl-1,3-propanediol substituted by the Gly-L-Pro-L-Arg-L-Leu-Daunorubicin sequence [Example 6] |  |  |  | derivative of daunorubicin liberated after trypsic hydrolysis (trypsin): freeing leucyl-daunorubicin
5 | COc1cccc2c1C(=O)c1c(O)c3c(c(O)c1C2=O)C[C@@](O)(C(C)=O)C[C@@H]3O[C@H]1C[C@H](N)[C@H](O)[C@H](C)O1 [Daunorubicin] | does not influence in a significant manner tumoral growth |  | severe atrophy of the spleen | radioactivity of the spleen [1]: significant accumulation of the radioactivity
6 | COc1cccc2c1C(=O)c1c(O)c3c(c(O)c1C2=O)C[C@@](O)(C(=O)CO)C[C@@H]3O[C@H]1C[C@H](N)[C@H](O)[C@H](C)O1 [adriamycin] |  |  |  | time to disappear from plasma [2]: 20 min
